Measured values from patent US6710090B2, “Inhibitory or blocking agents of molecular generating and/or inducing functions” (priority 1994, dated 2004).

Assay: Comparison of 4,4-dimethyl-2-cyclohexen-1-one with Yoshixol on all parameters
Description: In addition, higher dosage was needed to be obtained qualitatively an identical effect to the above-mentioned effect of Yoshixol. Then, the concentration of 4,4-dimethyl-2-cyclohexen-1-one was required about 30-100 times dosage of Yoshixol on the biological samples, and about 10-50 times dosage of Yoshixol on lower molecular substance and macromolecular substance of non-living samples.

## CC1(C)C=CC(=O)CC1 [4,4-dimethyl-2-cyclohexen-1-one]
All parameters demonstrated by Yoshixol
  control, inhibit and/or block function generated by multi-dimensional structure: similarly to Yoshixol
On the biological samples
  concentration required for an effect identical to Yoshixol: 30-100 times dosage of Yoshixol
